Assay results as given in ChEMBL document CHEMBL2216749, “Recent developments and biological activities of thiazolidinone derivatives: a review” (Bioorg Med Chem, 2012).
pEC50, pIC50, pKi: −log10 of the molar value. Values after ≈ are worked out from the molar mass of the structure shown.

Columns and labels:
[1] = biological target: T1, Follicle-stimulating hormone receptor (Homo sapiens, UniProt P23945); assay: Allosteric activation of human FSH receptor
T1 sequence (P23945 whole entry): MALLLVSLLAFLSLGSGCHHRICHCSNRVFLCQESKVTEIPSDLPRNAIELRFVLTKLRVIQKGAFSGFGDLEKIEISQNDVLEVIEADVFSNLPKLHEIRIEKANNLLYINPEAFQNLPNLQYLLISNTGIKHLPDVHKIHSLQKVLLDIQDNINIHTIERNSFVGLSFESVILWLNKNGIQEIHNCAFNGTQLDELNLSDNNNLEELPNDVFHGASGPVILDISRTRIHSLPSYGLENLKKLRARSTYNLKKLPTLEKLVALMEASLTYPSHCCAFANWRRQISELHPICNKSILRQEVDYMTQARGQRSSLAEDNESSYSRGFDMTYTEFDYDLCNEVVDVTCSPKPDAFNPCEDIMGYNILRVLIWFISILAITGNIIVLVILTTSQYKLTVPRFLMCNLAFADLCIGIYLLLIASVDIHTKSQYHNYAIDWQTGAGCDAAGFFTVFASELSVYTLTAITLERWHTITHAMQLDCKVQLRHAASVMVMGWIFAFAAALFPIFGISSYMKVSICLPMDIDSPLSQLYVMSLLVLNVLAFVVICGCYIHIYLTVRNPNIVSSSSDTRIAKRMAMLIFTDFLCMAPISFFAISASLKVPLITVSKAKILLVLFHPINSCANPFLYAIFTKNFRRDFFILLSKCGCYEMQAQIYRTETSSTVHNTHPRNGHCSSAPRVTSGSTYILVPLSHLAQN

[2] = biological target: T1, Follicle-stimulating hormone receptor; assay: Agonist activity at human FSH receptor by cAMP-based assay; assay type: functional
[3] = biological target: T1, Follicle-stimulating hormone receptor; assay: Agonist activity at human FSH receptor by aromatase-based assay; assay type: functional
[4] = biological target: Muscarinic acetylcholine receptor M1 (Rattus norvegicus, UniProt P08482); assay: Displacement of [3H]QNB from M1 receptor in Wistar rat cerebral cortex homogenate; assay type: tissue-based
Muscarinic acetylcholine receptor M1, sequence (P08482 whole entry): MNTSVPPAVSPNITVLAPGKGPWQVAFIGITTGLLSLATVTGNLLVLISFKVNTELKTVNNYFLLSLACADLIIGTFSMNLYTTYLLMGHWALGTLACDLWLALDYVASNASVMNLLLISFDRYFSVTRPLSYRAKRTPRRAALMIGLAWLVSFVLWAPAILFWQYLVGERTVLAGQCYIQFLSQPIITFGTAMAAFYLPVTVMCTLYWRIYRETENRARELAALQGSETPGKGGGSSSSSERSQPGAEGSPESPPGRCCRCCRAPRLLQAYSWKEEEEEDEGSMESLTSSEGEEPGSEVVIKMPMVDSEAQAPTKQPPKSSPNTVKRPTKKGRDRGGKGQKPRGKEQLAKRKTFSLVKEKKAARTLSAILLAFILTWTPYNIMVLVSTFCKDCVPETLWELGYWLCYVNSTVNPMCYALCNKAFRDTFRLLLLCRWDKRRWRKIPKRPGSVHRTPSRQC

[5] = biological target: Tyrosine-protein phosphatase non-receptor type 1 (Homo sapiens, UniProt P18031); assay: Inhibition of GST-tagged PTP1B using pNPP as substrate by spectrophotometric analysis
Tyrosine-protein phosphatase non-receptor type 1, sequence (P18031 whole entry): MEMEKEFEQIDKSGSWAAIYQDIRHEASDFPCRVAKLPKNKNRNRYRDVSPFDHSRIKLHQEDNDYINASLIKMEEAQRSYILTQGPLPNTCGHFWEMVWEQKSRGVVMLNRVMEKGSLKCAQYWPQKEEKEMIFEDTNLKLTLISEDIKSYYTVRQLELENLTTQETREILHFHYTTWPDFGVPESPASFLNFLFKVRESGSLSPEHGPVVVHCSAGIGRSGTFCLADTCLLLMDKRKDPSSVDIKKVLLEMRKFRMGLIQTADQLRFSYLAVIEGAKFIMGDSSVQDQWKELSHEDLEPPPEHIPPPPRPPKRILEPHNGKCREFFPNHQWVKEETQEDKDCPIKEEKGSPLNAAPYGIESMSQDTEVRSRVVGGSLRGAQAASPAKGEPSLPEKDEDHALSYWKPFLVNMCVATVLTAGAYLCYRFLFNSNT

[6] = system: Human immunodeficiency virus 1; assay: Antiviral activity against HIV1; assay type: functional, organism-based
[7] = biological target: T2, Human immunodeficiency virus type 1 integrase (Human immunodeficiency virus 1, UniProt Q7ZJM1); assay: Inhibition of HIV1 integrase 3' processing activity
T2 sequence (Q7ZJM1 whole entry): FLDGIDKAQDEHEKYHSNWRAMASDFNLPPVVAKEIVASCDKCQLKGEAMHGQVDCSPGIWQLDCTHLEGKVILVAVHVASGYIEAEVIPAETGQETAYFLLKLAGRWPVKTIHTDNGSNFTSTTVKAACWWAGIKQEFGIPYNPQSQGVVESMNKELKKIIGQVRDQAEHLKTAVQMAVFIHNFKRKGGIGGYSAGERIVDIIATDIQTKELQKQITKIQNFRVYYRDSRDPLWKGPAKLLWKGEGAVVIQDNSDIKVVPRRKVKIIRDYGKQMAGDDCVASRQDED

[8] = biological target: T2, Human immunodeficiency virus type 1 integrase; assay: Inhibition of HIV1 integrase strand transfer activity
[9] = Inhibition of HIV reverse transcriptase; design: species or system Human immunodeficiency virus
[10] = biological target: C-C chemokine receptor type 4 (Homo sapiens, UniProt P51679); assay: Antagonist activity at CCR4; assay type: functional
C-C chemokine receptor type 4, sequence (P51679 whole entry): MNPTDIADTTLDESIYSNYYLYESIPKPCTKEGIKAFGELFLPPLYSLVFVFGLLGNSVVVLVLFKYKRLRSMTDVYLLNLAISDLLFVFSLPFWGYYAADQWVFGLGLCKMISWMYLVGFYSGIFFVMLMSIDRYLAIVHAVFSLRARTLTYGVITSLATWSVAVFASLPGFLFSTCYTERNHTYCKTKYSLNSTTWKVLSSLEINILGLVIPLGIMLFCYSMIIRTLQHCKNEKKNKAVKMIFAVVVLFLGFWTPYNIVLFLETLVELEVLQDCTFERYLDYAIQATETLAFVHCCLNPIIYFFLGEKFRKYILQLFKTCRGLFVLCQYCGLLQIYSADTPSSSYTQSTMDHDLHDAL

[11] = biological target: Phosphotyrosine-protein phosphatase PTPB (Mycobacterium tuberculosis, UniProt P96830); assay: Inhibition of Mycobacterium tuberculosis protein tyrosine phosphatase B
Phosphotyrosine-protein phosphatase PTPB, sequence (P96830 whole entry): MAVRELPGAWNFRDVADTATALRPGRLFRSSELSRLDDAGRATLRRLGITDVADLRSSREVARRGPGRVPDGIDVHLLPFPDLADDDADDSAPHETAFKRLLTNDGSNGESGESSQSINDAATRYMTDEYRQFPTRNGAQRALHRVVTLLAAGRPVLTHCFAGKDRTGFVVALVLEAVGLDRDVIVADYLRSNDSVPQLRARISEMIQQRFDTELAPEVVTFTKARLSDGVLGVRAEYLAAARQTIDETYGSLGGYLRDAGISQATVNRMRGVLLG

[12] = system: Mycobacterium tuberculosis; assay: Growth inhibition of Mycobacterium tuberculosis H37Rv; assay type: functional
[13] = system: Mycobacterium tuberculosis; assay: Antimycobacterial activity against Mycobacterium tuberculosis H37Rv by alamar blue susceptibility assay; assay type: functional
Salmonella typhimurium = assay: Antibacterial activity against Salmonella typhimurium; assay type: functional, Salmonella enterica subsp. enterica serovar Typhimurium
Bacillus subtilis = assay: Antibacterial activity against Bacillus subtilis; assay type: functional
Escherichia coli = assay: Antibacterial activity against Escherichia coli; assay type: functional
[14] = system: Mycobacterium tuberculosis; assay: Growth inhibition of Mycobacterium tuberculosis H37Rv at 6.25 ug/ml; assay type: functional; details: read-out: GI
[15] = system: Ditylenchus myceliophagus; assay: Nematicidal activity against Ditylenchus myceliophagus after 2 days; assay type: functional; details: 48 h, read-out: LD50 (the source's name)
Rattus norvegicus = assay: Antiinflammatory activity in rat assessed as inhibition of carageenaan-induced paw edema relative to control; assay type: functional
Caenorhabditis elegans = assay: Nematicidal activity against Caenorhabditis elegans after 2 days; assay type: functional; details: 48 h, read-out: LD50 (the source's name)
Trypanosoma = assay: Growth inhibition of epimastigote form of Trypanosoma at 100 ug/ml; assay type: functional; details: read-out: GI
Trypanosoma cruzi = assay: Growth inhibition of Trypanosoma cruzi at 100 ug/ml; assay type: functional; details: read-out: GI
[16] = system: Bovine viral diarrhea virus 1; assay: Antiviral activity against Bovine viral diarrhea virus; assay type: functional, organism-based; details: Bovine viral diarrhea virus isolates and strains
Human alphaherpesvirus 1 = assay: Antiviral activity against Herpes simplex virus 1 KOS; assay type: functional, organism-based; details: Human alphaherpesvirus 1, KOS
Influenza A virus = assay: Antiviral activity against Influenza A virus H3N2; assay type: functional, organism-based
Influenza B virus = assay: Antiviral activity against influenza B virus; assay type: functional, organism-based
Human alphaherpesvirus 2 = assay: Antiviral activity against Herpes simplex virus 2; assay type: functional, organism-based

SMILES: COc1ccc(CCNC(=O)C[C@H]2S[C@@H](c3ccc(C#Cc4ccccc4)cc3)N(c3ccc(C(N)=O)c(Cl)c3)C2=O)cc1OC
- pEC50 [1]: 9.00

SMILES: CCOc1cc(CCNC(=O)C[C@H]2S[C@@H](c3ccc(C#Cc4ccccc4)cc3)NC2=O)ccc1OC
- pEC50 [2]: 7.10
- pEC50 [3]: 7.30

SMILES: Cc1ccc(C2SCC(=O)N2C2=CCCN(C)C2)cc1 (centres undefined)
- pIC50 [4]: 3.84
- pKi [4]: 4.59

SMILES: O=C(O)CN1C(=O)/C(=C/c2ccc(-c3ccc(OCc4ccccc4)cc3)cc2)SC1=S
- pIC50 [5]: 6.32

SMILES: Cc1cccc(N2C(=O)CSC2c2ccccn2)n1 (centres undefined)
- pEC50 [6]: 8.11

SMILES: O=C(Nc1ccc(O)cc1)C(=S)NN1C(=O)/C(=C\c2cc(I)cc(I)c2O)SC1=S
- pIC50 [7]: 5.15
- pIC50 [8]: 5.52

SMILES: Cc1nc(N2C(=O)CSC2c2ccccc2Cl)nc(C)c1C (centres undefined)
- pIC50 [9]: 5.53

SMILES: C[C@H](NC(=O)C[C@H]1S[C@H](c2ccc(Cl)cc2Cl)N(CC(=O)NCCCN2CCCCC2)C1=O)c1cccc2ccccc12
- pIC50 [10]: 6.96

SMILES: O=C1CS(=O)(=O)C2(C(=O)N(Cc3ccc(Br)cc3)c3ccc([N+](=O)[O-])cc32)N1c1ccc(F)c(F)c1 (centres undefined)
- pIC50 [11]: 5.96

SMILES: O=c1oc2ccccc2cc1-c1cs/c(=N\N=C\c2ccc(Cl)c(Cl)c2)n1C1CCCCC1
- Imax [12]: 42%

SMILES: COc1cc(C2SCC(=O)N2NC(=O)c2ccncc2)ccc1O (centres undefined)
- MIC [13]: 0.31 µg/mL (≈ 0.898 µM)

SMILES: CC1C(N2C(=O)CSC2c2cc(I)cc(I)c2O)C(=O)N(c2ccccc2)N1C (centres undefined)
- inhibition zone (IZ) (Salmonella typhimurium): 25 mm
- inhibition zone (IZ) (Bacillus subtilis): 24 mm
- inhibition zone (IZ) (Escherichia coli): 27 mm

SMILES: COc1ccc(C(=O)Nc2ccc(C(=O)NN3C(=O)CSC3c3coc([N+](=O)[O-])c3)cc2)cc1 (centres undefined)
- inhibition of growth at 6.25 µg/mL [14]: 90%

SMILES: COc1ccc(Cc2cccc(C3SC(CC(=O)O)C(=O)N3c3cccc(O)c3)c2)cc1C1SC(CC(=O)O)C(=O)N1c1cccc(O)c1 (centres undefined)
- LC50 [15]: 210 µg/mL (≈ 300 µM)

SMILES: Cc1c(N2C(=O)CSC2c2cc(I)cc(I)c2O)c(=O)n(-c2ccccc2)n1C (centres undefined)
- inhibition zone (IZ) (Salmonella typhimurium): 25 mm
- inhibition zone (IZ) (Bacillus subtilis): 24 mm
- inhibition zone (IZ) (Escherichia coli): 27 mm

SMILES: NS(=O)(=O)c1ccc(N2C(=O)CSC2c2ccccc2)cc1 (centres undefined)
- inhibition (INH) (Rattus norvegicus): 78%

SMILES: COc1ccc(Cc2cccc(C3SCC(=O)N3c3cccc(O)c3)c2)cc1C1SCC(=O)N1c1cccc(O)c1 (centres undefined)
- LC50 (Caenorhabditis elegans): 240 µg/mL (≈ 410 µM)

SMILES: O=C1CSC(c2cccc3ccccc23)N1c1ccc(Br)cc1 (centres undefined)
- inhibition of growth at 100 µg/mL (Trypanosoma): 91.4%

SMILES: CNC(=O)CC1S/C(=N\N=C(/C)c2cccc(Br)c2)N(C)C1=O (centres undefined)
- inhibition of growth at 100 µg/mL (Trypanosoma cruzi): 60%

SMILES: O=C(N/N=C1/SCC(=O)N1c1ccccc1)c1cc(-c2cc3ccccc3o2)n(-c2ccccc2)n1
- inhibition zone (IZ) (Bacillus subtilis): 40 mm

SMILES: CC1S/C(=N/N=C2\C(=O)Nc3ccc([N+](=O)[O-])cc32)N(c2ccc(Br)cc2)C1=O (centres undefined)
- EC50 [16]: 13 µg/mL (≈ 27.4 µM)

SMILES: Cc1cc(C)nc(N2C(=O)CSC2c2c(C)cccc2C)c1 (centres undefined)
- pEC50 (Human alphaherpesvirus 1): 3.89
- pEC50 (Influenza A virus): 3.60
- pEC50 (Influenza B virus): 3.58
- pEC50 (Human alphaherpesvirus 2): 3.79

SMILES: COc1ccc(C(=O)Nc2ccc(C(=O)NN3C(=O)CSC3c3ccc(F)cc3)cc2)cc1 (centres undefined)
- inhibition of growth at 6.25 µg/mL [14]: 98%

SMILES: Cc1ccc(-c2cc(C(F)(F)F)nn2-c2ccc(S(N)(=O)=O)cc2)cc1 [CELECOXIB]
- inhibition (INH) (Rattus norvegicus): 45%
